Source: patent publication US20100331297A1, “MODULATION OF PROTEIN TRAFFICKING” (FOLDRX PHARMACEUTICALS, INC., priority 2007, published 2010)

Legend:
[1] = molecular target: T1, ΔF508 CFTR (Homo sapiens, UniProt P13569, DEL508-508); assay: Potentiator activity, YFP halide (iodide) quenching assay in FRT cells expressing ΔF508 CFTR, 27° C. pre-incubation; assay type: cell-based; design: expressed in transfected cells; host or cells: Fischer rat thyroid (FRT) cells; Potentiator activity compared to the DMSO control (no EC50 obtained): scale not given here; settings: for EC50: FRT cells ΔF508 CFTR/YFP, 24 hours at 27° C., compound with forskolin 30 min
T1 sequence (P13569 with tags, fused parts or gaps DEL508-508): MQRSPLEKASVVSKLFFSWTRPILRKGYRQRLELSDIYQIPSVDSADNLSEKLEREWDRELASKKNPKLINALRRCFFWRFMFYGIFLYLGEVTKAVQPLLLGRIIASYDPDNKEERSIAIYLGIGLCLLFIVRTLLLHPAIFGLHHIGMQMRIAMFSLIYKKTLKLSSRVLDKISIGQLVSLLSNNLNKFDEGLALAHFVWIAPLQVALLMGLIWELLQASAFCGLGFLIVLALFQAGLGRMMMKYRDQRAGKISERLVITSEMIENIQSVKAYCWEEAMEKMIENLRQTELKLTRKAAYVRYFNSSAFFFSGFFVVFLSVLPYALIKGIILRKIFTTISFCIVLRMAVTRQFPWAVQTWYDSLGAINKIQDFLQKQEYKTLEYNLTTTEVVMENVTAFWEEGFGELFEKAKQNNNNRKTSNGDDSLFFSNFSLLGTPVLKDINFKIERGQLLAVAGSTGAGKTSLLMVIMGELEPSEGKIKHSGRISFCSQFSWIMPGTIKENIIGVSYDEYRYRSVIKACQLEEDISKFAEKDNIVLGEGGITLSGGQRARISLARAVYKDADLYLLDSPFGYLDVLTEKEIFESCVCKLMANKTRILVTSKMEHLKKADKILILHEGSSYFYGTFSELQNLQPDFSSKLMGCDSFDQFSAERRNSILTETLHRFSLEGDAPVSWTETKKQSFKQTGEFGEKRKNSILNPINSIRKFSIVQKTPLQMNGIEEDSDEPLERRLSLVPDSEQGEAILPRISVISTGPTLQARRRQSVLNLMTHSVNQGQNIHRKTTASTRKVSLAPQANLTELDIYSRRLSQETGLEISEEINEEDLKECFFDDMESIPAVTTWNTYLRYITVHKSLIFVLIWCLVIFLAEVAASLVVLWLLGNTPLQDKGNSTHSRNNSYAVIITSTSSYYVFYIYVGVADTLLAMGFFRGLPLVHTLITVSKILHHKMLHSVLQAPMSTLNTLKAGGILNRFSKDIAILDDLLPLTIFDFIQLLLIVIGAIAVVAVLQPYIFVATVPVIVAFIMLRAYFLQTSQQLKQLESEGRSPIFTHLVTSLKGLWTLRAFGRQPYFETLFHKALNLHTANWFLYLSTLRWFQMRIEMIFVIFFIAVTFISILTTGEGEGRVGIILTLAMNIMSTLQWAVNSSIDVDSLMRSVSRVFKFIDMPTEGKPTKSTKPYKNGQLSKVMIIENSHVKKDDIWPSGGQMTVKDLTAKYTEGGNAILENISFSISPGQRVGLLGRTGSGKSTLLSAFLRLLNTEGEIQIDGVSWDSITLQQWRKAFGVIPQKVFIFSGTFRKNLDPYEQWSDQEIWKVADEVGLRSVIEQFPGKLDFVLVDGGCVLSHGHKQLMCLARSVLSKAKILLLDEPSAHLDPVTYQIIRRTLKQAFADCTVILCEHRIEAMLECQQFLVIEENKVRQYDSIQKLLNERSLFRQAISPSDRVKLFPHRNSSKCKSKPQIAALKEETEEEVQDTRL
Procedure: Fisher rat thyroid (FRT) cells stably expressing ΔF508 CFTR and a halide-sensitive variant of yellow fluorescent protein (YFP) were seeded into microtiter plates and allowed to grow for 24 hours at 37° C. and 5% CO2, as described above. The medium was replaced with fresh medium and the cells were incubated for a further 24 hours at 27° C. and 5% CO2 to increase the level of mutant CFTR at the cell surface.
Compounds in DMSO solution were pre-diluted into phosphate-buffered saline solution (PBS) containing forskolin. Activity of CFTR was assayed by removing the medium, washing the cell monolayer with PBS, and then applying the compounds diluted in PBS containing forskolin. After 30 min of incubation at 37° C., the plates were placed in a fluorescence plate reader equipped with a reagent injector. After measuring an initial fluorescence value, iodide-containing buffer was injected and the decrease in fluorescence was followed at excitation and emission wavelengths of 485 and 530 nm, respectively.
Potentiator activity was calculated as follows. Normalized endpoint fluorescence was calculated by dividing the endpoint fluorescence after iodide injection by the initial fluorescence reading and multiplication by 100. Potentiator EC50 values were calculated by the same method as corrector EC50 values.

[2] = molecular target: T1, ΔF508 CFTR; assay: Corrector activity, YFP halide (iodide) quenching assay in FRT cells expressing ΔF508 CFTR; assay type: cell-based; design: expressed in transfected cells; host or cells: Fischer rat thyroid (FRT) cells; settings: FRT cells ΔF508 CFTR/YFP, 24 hours with compound at 37° C., forskolin and genistein; read-out: Corrector EC50
Method in brief: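 FRT cells co-expressing ΔF508 CFTR and halide-sensitive YFP were incubated 24 h at 37° C with compounds, then stimulated 30 min at 37° C in PBS with forskolin and genistein. Endpoint fluorescence after iodide injection was normalized to initial reading; EC50 from 4-parameter fit with bottom constrained to DMSO control.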

EC50 [1] | EC50 [2] | Potentiator activity compared to the DMSO control (no EC50 obtained) ([1]; at 12 μm) | Compound
> 15 µM | > 15 µM |  | CC(C)(C)n1nc(Oc2cccc(OC(F)(F)F)c2)c2c(N)ncnc21 [compound 194]
5 to 10 µM | > 15 µM |  | CC(C)(C)n1nc(Sc2ccccn2)c2c(N)ncnc21 [compound 245]
> 15 µM | > 15 µM |  | CCn1cc(-c2ccc(Cl)cc2)c2c(NC(=O)NC(C)C)ncnc21 [compound 328]
< 2 µM | 5 to 10 µM |  | CC(C)(C)n1nc(-c2ccc(Cl)cc2)c2c(NC(=O)C3CCCC3)ncnc21 [compound 266]
< 2 µM | > 15 µM |  | CCn1nc(Sc2cccc(C(F)(F)F)c2)c2c(N)ncnc21 [compound 323]
> 15 µM | 2 to 5 µM |  | CC(C)(C)n1nc(-c2ccc(Cl)cc2)c2c(NS(C)(=O)=O)ncnc21 [Compound No. 274, N-[1-tert-Butyl-3-(4-chloro-phenyl)-1H-pyrazolo[3,4-d]pyrimidin-4-yl]-methanesulfonamide]
5 to 10 µM | 2 to 5 µM |  | C=CCn1cc(-c2ccc(Cl)cc2)c2c(N)ncnc21 [compound 311]
2 to 5 µM | > 15 µM |  | CC(C)(C)n1nc(Oc2cccc(F)c2F)c2c(N)ncnc21 [compound 178]
> 15 µM | > 15 µM |  | CC(C)(C)n1nc(Oc2ccccn2)c2c(N)ncnc21 [compound 330]
< 2 µM | 5 to 10 µM |  | CC(C)(C)n1nc(Oc2ccc(F)cc2)c2c(N)ncnc21 [compound 196]
> 15 µM | > 15 µM |  | CC(C)(C)n1nc(Oc2cccnc2)c2c(N)ncnc21 [compound 183]
> 15 µM | > 15 µM |  | CCn1nc([S+]([O-])c2cccc(Cl)c2)c2c(N)ncnc21 (centres unmarked) [compound 279]
> 15 µM | > 15 µM |  | CC(C)(C)n1nc(-c2ccc(Cl)cc2)c2c(NC(=O)N3CCOCC3)ncnc21 [compound 268]
> 15 µM | > 15 µM |  | Nc1ncnc2c1c(Cc1cccc3ccccc13)nn2C1CNC1 [compound 413]
> 15 µM | > 15 µM |  | Nc1ncnc2c1c(Oc1cccc(Cl)c1)nn2CC(F)F [compound 263]
2 to 5 µM | 2 to 5 µM |  | CCn1cc(-c2ccc(Cl)cc2)c2c(NC(=O)C(C)(C)C)ncnc21 [compound 322]
2 to 5 µM | 5 to 10 µM |  | CCC(C)Cn1cc(-c2ccc(Cl)cc2)c2c(N)ncnc21 (centres unmarked) [compound 289]
> 15 µM | > 15 µM |  | CCn1nc(Sc2ccccc2Cl)c2c(N)ncnc21 [compound 227]
2 to 5 µM | > 15 µM |  | CC(C)(C)OC(=O)N1CC(n2nc(-c3ccc(Cl)cc3)c3c(N)ncnc32)C1 [Compound No. 267, 3-[4-Amino-3-(4-chloro-phenyl)-pyrazolo[3,4-d]pyrimidin-1-yl]-azetidine-1-carboxylic acid tert-butyl ester]
< 2 µM | > 15 µM |  | CC(C)(C)n1nc(Oc2cccc(Oc3ccccc3)c2)c2c(N)ncnc21 [compound 189]
> 15 µM | > 15 µM |  | CCn1nc([S+]([O-])c2cccc3ccccc23)c2c(N)ncnc21 (centres unmarked) [compound 241]

Second part, the compound before the results:

Compound | EC50 [1] | EC50 [2] | Potentiator activity compared to the DMSO control (no EC50 obtained) ([1]; at 12 μm)
CN1CC(n2nc(-c3ccc(Cl)cc3)c3c(N)ncnc32)C1 [Compound No. 296, 3-(4-Chloro-phenyl)-1-(1-methyl-azetidin-3-yl)-1H-pyrazolo[3,4-d]pyrimidin-4-ylamine] | > 15 µM | > 15 µM | 
CC(C)(C)n1nc(Oc2ccccc2F)c2c(N)ncnc21 [compound 197] | < 2 µM | 5 to 10 µM | 
CC(C)(C)OC(=O)N1CC(n2nc(Sc3ccccc3)c3c(N)ncnc32)C1 [Compound No. 320, 3-(4-Amino-3-phenylsulfanyl-pyrazolo[3,4-d]pyrimidin-1-yl)-azetidine-1-carboxylic acid tert-butyl ester] | 2 to 5 µM | > 15 µM | 
Nc1ncnc2c1c(Oc1cccc(Cl)c1)nn2C1CCC1 [compound 228] | < 2 µM | > 15 µM | 
CCn1cc(-c2ccc(Cl)cc2)c2c(NC(=O)c3ccc(C)cc3)ncnc21 [compound 298] | > 15 µM | < 2 µM | 
Cc1cccc(Oc2nn(C(C)(C)C)c3ncnc(N)c23)c1C [compound 167] | < 2 µM | > 15 µM | 
CCn1cc(-c2ccc(Cl)cc2)c2c(NC(=O)C3CCCC3)ncnc21 [compound 350] | > 15 µM | < 2 µM | 
CCOC(=O)N1CC(n2nc(Sc3ccccc3)c3c(N)ncnc32)C1 [compound 347] | > 15 µM | > 15 µM | 
CC(C)(C)Cn1cc(-c2ccc(Cl)cc2)c2c(N)ncnc21 [compound 316] | 2 to 5 µM | 5 to 10 µM | 
Cc1ccc(F)c(Oc2nn(C(C)(C)C)c3ncnc(N)c23)c1 [compound 206] | > 15 µM | > 15 µM | 
CC(C)C(=O)Nc1ncnc2c1c(-c1ccc(Cl)cc1)cn2C(C)C [compound 352] | < 2 µM | < 2 µM | 
CC(C)(C)n1nc(Oc2ccc(F)c(Cl)c2)c2c(N)ncnc21 [compound 176] | < 2 µM | > 15 µM | 
Nc1ncnc2[nH]nc(Oc3cccc(Cl)c3)c12 [Compound No. 220, 3-(3-Chloro-phenoxy)-1H-pyrazolo[3,4-d]pyrimidin-4-ylamine] | > 15 µM | > 15 µM | 
Nc1ncnc2c1c(-c1ccc(Cl)cc1)nn2C(=O)Oc1ccccc1 [compound 187] | > 15 µM | 5 to 10 µM | 
CCC(=O)Nc1ncnc2c1c(-c1ccc(Cl)cc1)nn2C(C)(C)C [compound 240] | < 2 µM | 5 to 10 µM | 
Nc1ncnc2c1c(-c1ccc(Cl)cc1)nn2C1CCNCC1 [compound 412] | > 15 µM | > 15 µM | 
CC(C)(C)n1nc(-c2ccc(Cl)cc2)c2c(NC(=O)N3CCCCC3)ncnc21 [compound 273] | > 15 µM | > 15 µM | 

Compound | EC50 [1] | EC50 [2] | Potentiator activity compared to the DMSO control (no EC50 obtained) ([1]; at 12 μm)
COC(=O)Nc1ncnc2c1c(-c1ccc(Cl)cc1)nn2C(C)(C)C [Compound No. 294, [1-tert-Butyl-3-(4-chloro-phenyl)-1H-pyrazolo[3,4-d]pyrimidin-4-yl]-carbamic acid methyl ester] | > 15 µM | > 15 µM | 
CCn1cc(-c2ccc(Cl)cc2)c2c(N(C)C(C)=O)ncnc21 [compound 282] | > 15 µM | > 15 µM | 
CC(C)(C1CC1)n1cc(-c2ccc(Cl)cc2)c2c(N)ncnc21 [compound 351] | < 2 µM | 2 to 5 µM | 
Nc1ncnc2c1c(-c1ccc(Cl)cc1)nn2[C@@H]1CCOC1 [compound 307] | > 15 µM | > 15 µM | 
CC(C)(C)n1nc(Oc2cccc3cccnc23)c2c(N)ncnc21 [compound 195] | > 15 µM | 5 to 10 µM | 
CC(C)n1cc(-c2ccc(Cl)cc2)c2c(N)ncnc21 [compound 315] | 2 to 5 µM | < 2 µM | 
CC(C)(C)n1nc(Oc2cccc3ccccc23)c2c(N)ncnc21 [compound 198, 1-tert-Butyl-3-(naphthalen-1-yloxy)-1H-pyrazolo[3,4-d]pyrimidin-4-ylamine] |  | > 15 µM | # (at 12 μm)
CCn1nc([S+]([O-])c2ccc(C)cc2)c2c(N)ncnc21 (centres unmarked) [compound 291] | > 15 µM | > 15 µM | 
Nc1ncnc2c1c(-c1ccc(Cl)cc1)nn2-c1nc2ccccc2o1 [compound 277] | > 15 µM | > 15 µM | 
CC(C)(C)n1nc(Oc2cccc(C#N)c2)c2c(N)ncnc21 [compound 201] | 5 to 10 µM | 5 to 10 µM | 
CCOC(=O)N1CC(n2nc(-c3ccc(Cl)cc3)c3c(N)ncnc32)C1 [compound 270] | > 15 µM | > 15 µM | 
CC(C)(C)OC(=O)N1CC(n2nc(Cc3cccc4ccccc34)c3c(N)ncnc32)C1 [Compound No. 297, 3-(4-Amino-3-naphthalen-1-ylmethyl-pyrazolo[3,4-d]pyrimidin-1-yl)-azetidine-1-carboxylic acid tert-butyl ester] | 2 to 5 µM | > 15 µM | 
CCNC(=O)N1CC(n2nc(Sc3cccc(Cl)c3)c3c(N)ncnc32)C1 [Compound No. 346, 3-[4-Amino-3-(3-chloro-phenylsulfanyl)-pyrazolo[3,4-d]pyrimidin-1-yl]-azetidine-1-carboxylic acid ethylamide] | > 15 µM | > 15 µM | 
CC(=O)C1CC(n2nc(Sc3ccccc3)c3c(N)ncnc32)C1 (centres unmarked) [compound 334] | > 15 µM | > 15 µM | 
CCn1nc(Nc2cccc(Cl)c2)c2c(N)ncnc21 [compound 286] | > 15 µM | > 15 µM | 
CC(C)Cn1nc(-c2ccc(Cl)cc2)c2c(N)ncnc21 [compound 252] | 5 to 10 µM | 2 to 5 µM | 
Nc1ncnc2c1c(Oc1cccc(Cl)c1)nn2-c1ncccn1 [compound 287] | > 15 µM | > 15 µM | 
